Test results published in US12146889B1, “Compounds and combinations thereof for treating neurological and psychiatric conditions” (priority 2022, dated 2024).
Counter-ions that a name gives are not always drawn. Like-named read-outs stand apart in the source and are kept apart here.

What was measured:
[1] = system: patients with treatment-resistant depression or MDD; conditions: cited from earlier work
[2] = system: patients with treatment-resistant depression or MDD; conditions: cited from earlier work; remark: listed apart in the source
[3] = pharmacokinetics in CYP2D6 poor metabolizers
Excerpt: Approximately 7% to 10% of Caucasians and 3% to 8% of African Americans lack the capacity to metabolize CYP2D6 substrates and are classified as poor metabolizers.
(§1) Data are GMRs and 90% CIs. References used are the matched healthy subjects for renal and hepatic impairment studies, and extensive or ultra-extensive CYP2D6 metabolizers respectively.

[4] = solubility of the powder in water
[5] = co-administration with strong CYP2D6 inhibitor (paroxetine)
[6] = effect of food on pharmacokinetics of the subject combination
[7] = pharmacokinetics in moderate hepatic impairment; assay type: in vivo, human; conditions: for AUC0-12 and Cmax in moderate hepatic impairment compared with healthy patients: Group 2; for AUC Change Relative to Reference (90% CI); mean ratio of AUC0-12 / Cmax Change Relative to Reference (90% CI); mean ratio of Cmax: Moderate Hepatic Impairment (Group 2), GMR vs matched healthy subjects, after 8 days of twice daily dosing, hydrobromide monohydrate
[8] = pharmacokinetics of the subject combination at steady state; conditions: co-administered with bupropion
[9] = pharmacokinetics in moderate renal impairment
Excerpt: as §1

[10] = bupropion and its metabolites; cited from earlier work
[11] = flexible-dose study, patients ≥65 years with treatment-resistant depression, 28 to 84 mg + oral AD, N = 72
[12] = 3 poor metabolizers, subject combination
[13] = 20 mg of paroxetine, tablet of Example 4 twice daily, vs tablet twice daily without paroxetine
[14] = 7 subjects with moderate (GFR 30-60 mL/min) renal impairment vs 6 matched controls
[15] = patients having moderate renal impairment, tablets of Example 4

CN[C@]1(c2ccccc2Cl)CCCCC1=O [esketamine, Esketamine]
Incidence of Sedation (MOAA/S score <5) ([1]; fixed-dose study, patients <65 years with treatment-resistant depression, 56 mg + oral AD, N = 114): 50%
Incidence of Sedation (MOAA/S score <5) ([1]; fixed-dose study, patients <65 years with treatment-resistant depression, 84 mg + oral AD, N = 114): 61%
Incidence of Sedation (MOAA/S score <5) [1, 11]: 49%
Incidence of Dissociation (CADSS total score >4 and change >0) ([2]; fixed-dose study, patients <65 years with treatment-resistant depression, 56 mg + oral AD, N = 113): 61%
Incidence of Dissociation (CADSS total score >4 and change >0) ([2]; fixed-dose study, patients <65 years with treatment-resistant depression, 84 mg + oral AD, N = 116): 69%
Incidence of Dissociation (CADSS total score >4 and change >0) [2, 11]: 75%

COc1ccc2c(c1)[C@]13CCCC[C@@H]1[C@H](C2)N(C)CC3 [dextromethorphan, morphinan, 3-methoxy-17-methyl-, (9α, 13α, 14α), hydrobromide monohydrate]
increase in AUC0-12 in poor metabolizers compared to extensive metabolizers [3, 12]: ~3.4 fold
increase in Cmax in poor metabolizers compared to extensive metabolizers [3, 12]: ~3 fold
steady state plasma concentrations in poor metabolizers vs non-poor metabolizers ([3]; 12 poor metabolizers treated with the subject combination in efficacy trials): generally higher than exposures for non-poor metabolizers
plasma concentrations in CYP2D6 poor metabolizers compared to patients who are not CYP2D6 poor metabolizers ([3]; subject composition): increases plasma concentrations of dextromethorphan
solubility in water [4]: sparingly soluble in water
increase of AUC0-12 with concomitant paroxetine [5, 13]: 2.69 fold
increase of Cmax with concomitant paroxetine [5, 13]: 2.38 fold
increase of overall exposure by paroxetine ([5]; co-administration of paroxetine and the subject combination, 29 healthy volunteers): 2.5 fold
plasma concentrations on concomitant use of the subject combination with strong CYP2D6 inhibitor ([5]; in vivo): increases plasma concentrations of dextromethorphan
decrease of AUC0-12 when administered with food [6]: 14%
AUC0-12 and Cmax in moderate hepatic impairment compared with healthy patients [7]: not significantly different
AUC Change Relative to Reference (90% CI); mean ratio of AUC0-12 [7]: 1.17
Cmax Change Relative to Reference (90% CI); mean ratio of Cmax [7]: 1.21
AUC Change Relative to Reference (90% CI); mean ratio of AUC0-12 ([7]; listed as DM): 1.17 (0.85, 1.61)
Cmax Change Relative to Reference (90% CI); mean ratio of Cmax ([7]; listed as DM): 1.21 (0.90, 1.62)
dose proportionality of changes in AUC and Cmax at steady state ([8]; varying doses of bupropion (75 to 150 mg)): less than dose-proportional changes
dose proportionality of changes in AUC and Cmax at steady state ([8]; varying doses of dextromethorphan (30 to 60 mg)): greater than dose-proportional changes
increase of exposure in moderate renal impairment vs matched controls with normal renal function [9, 14]: approximately 2 fold
reduction of clearance in moderate renal impairment vs matched controls [9, 14]: 50%
increase in AUC0-12 in moderate renal impairment [9, 15]: 2.21 fold
increase in Cmax in moderate renal impairment [9, 15]: 2.10 fold

CC(NC(C)(C)C)C(=O)c1cccc(Cl)c1.Cl (racemic) [bupropion, (±)-1-(3-chlorophenyl)-2-[(1,1-dimethylethyl)amino]-1-propanone hydrochloride]
solubility in water [4]: highly soluble in water
AUC0-12 and Cmax in moderate hepatic impairment compared with healthy patients [7]: not significantly different
presence in human milk [10]: presence of bupropion and its metabolites in human milk
increase in AUC0-12 in moderate renal impairment ([9]; human, in vivo): 1.80 fold
increase in Cmax in moderate renal impairment ([9]; human, in vivo): 1.87 fold
increase of exposure in moderate renal impairment vs matched controls with normal renal function ([9]; human, in vivo): approximately 2 fold
reduction of clearance in moderate renal impairment vs matched controls ([9]; human, in vivo): 50%
